Results on four compounds are retold here after patent US8968703B2, “13C-MR detection using hyperpolarised 13C-fructose” (GE Healthcare Limited, priority 2009, dated 2015).

Data set [1] can be described thus: 3T T1 studies of hyperpolarized [2-13C]-fructose in solution. It is filed as physicochemical. Conditions: for T1 sec (3T): C2 fructose carbon, solution spectra, monoexponential fit. The procedure: T1 studies were performed using a 3T GE Signa™ scanner (GE Healthcare. Waukesha, Wis.) equipped with the MNS (multinuclear spectroscopy) hardware package. Solution spectra were acquired using a 5° non localised pulse, TR=3 s and fit to a monoexponential. The RF coil used in these experiments was a dual-tuned ^1H-^13C coil with a quadrature ^13C channel and linear ^1H channel construction based on an earlier design and also used in ^13C-pyruvate mouse imaging studies. For animal studies, T2-weighted fast spin echo images were acquired prior to MRSI studies to denote anatomy and place voxels on the region of interest. In vivo MRSI studies were carried out using a compressed sensing double spin 3D MRSI acquisition scheme as previously published by Hu S et al. (2008) Compressed sensing for resolution enhancement of hyperpolarized 13C flyback 3D-MRSI. J Magn Reson 192, 258-264, with a TE=140 ms. TR=215 ms, FOV=8 cm×8 cm, and 16×8 resolution. 500 μl of 80 mM [2-^13C]-fructose was injected similar to described by Albers M J et al. (2008) Hyperpolarized 13C lactate, pyruvate and alanine: noninvasice biomarkers for prostate cancer detection and grading. Cancer Res. 68, 8607-8615, for [1-^13C] pyruvate in a transgenic model of prostate cancer (TRAMP). These injections were compared to the standard [1-^13C]-pyruvate injection for the same voxel in a tumor region of interest.

The nature of data set [2]: 11.7T NMR studies of hyperpolarized [2-13C]-fructose (T1, percent polarization). The class given is physicochemical. Conditions: for T1 sec (11.7T): C2 fructose carbon, mono-exponential fit of hyperpolarized signal decay; for % pol (corrected): percent polarization corrected for transfer time using T1 decay. How it is done:
A 4.0M solution of 2-[^13C]-fructose (Isotec, Miamisburg, Ohio) in water containing 15 mM OX063 trityl radical (Oxford Instruments) was hyperpolarized on a Hypersense instrument (Oxford Instruments) as described by Ardenkjaer-Larsen et al (2003) Increase in signal-to-noise ratio of >10,000 times in liquid-state NMR. Proc. Natl. Acad. Sci. U.S.A. 100, 10158-10163. The frozen sample was dissolved in 1× phosphate buffered saline (PBS), with a resultant pH of 7.6, and transferred immediately to a 10 mm NMR tube.
NMR studies were performed on an 11.7T Varian INOVA spectrometer (125 MHz ^13C, Varian Instruments) using a 10 mm ^15N/[…]/^13C triple-tuned direct detect probe. Initially, a thermal spectrum was acquired for a natural abundance fructose sample in 1×PBS buffer at 37° C. (nt=9000, sw=30000, np=30000, TR=3.5 s, acq time=0.5 s) using an Ernst angle pulse (45 degrees). […] The C2 carbon resonances correspond to the isomeric distribution of the two ring forms (pyranose and furanose forms) of the fructose molecule.
For the acquisition of hyperpolarized ^13C spectra […] pulse hyperpolarized ^13C NMR spectra (1 average, spectral window=30000 Hz, number of points=30000, TR=3.5 s, acq time=0.5 s, total acq time=2 min 55 s) were acquired using a 5° pulse and proton decoupled using a waltz-16 decoupling scheme. Hyperpolarized studies were followed by acquisition of thermal data using nearly identical parameters, using a 90° tip angle and a repeat time of roughly four T1's (TR=76 s, nt=64). T1's were determined by performing a mono-exponential fit to the signal decay curve of the hyperpolarized compounds. Signal enhancement percent polarizations were calculated by comparing the hyperpolarized and thermal data sets and accounting for differences in tip angle and transients obtained. Solid state polarizations were calculated by correcting the enhancement for the transfer time from the polarizer using the T1 decay.

Test in data set [3]: as above
Conditions: pH ranges 5.9-7.8. It is filed as physicochemical.

A further data set concerns hexokinase. The experiment in a line: NMR study of enzymatic conversion of hyperpolarized fructose to fructose-6-phosphate. To be noted: 400 U hexokinase. It is filed as biochemical. The procedure: For NMR studies of the enzymatic conversion of Fructose to fructose-6-phosphate, hyperpolarized [2-^13C]-fructose was reacted with 400 U of hexokinase (Sigma Aldrich) in the presence of 15 mM ATP, 50 mM TRIS and 13 mM MgCl2. The labelling and mechanism for transport and metabolism is shown below (FIG. 1), though in this enzymatic study the transport element has been removed and the enzyme activity was independently measured. Peaks corresponding to fructose-6-phosphate were identified using a natural abundance carbon spectrum, using a similar set of experimental parameters.

As for `OC[C@H]1O[C@@](O)(CO)[C@@H](O)[C@@H]1O` [A-fructofuranose], the “T1 sec (3T)” value in data set [1] amounted to 13.4 ± 0.4 s. In data set [2], the “T1 sec (11.7T)” value came to 15.5 ± 0.5 s and the “% pol (corrected)” value came out at 11.8 ± 2.0%.

With `O=[13C](CO)[C@@H](O)[C@H](O)[C@H](O)CO` [fructose, [2-^13C]-fructose], the “T1 dependence on pH” value in data set [3] is listed as “no T1 dependence on pH”. The “Relaxation times (T1)” value in data set [1] (at 3T) was in the range of 13 to 14 s; in data set [2] (at 11.7 T) it was 15 to 16 s. In addition, in data set [2] (averages for the isomers of fructose), the “Percent polarization, average over isomers” value is on record as about 12%. For the same compound, in data set [2] (in solution), the “Isomeric ratio of fructose pyranose to furanose in solution” value is on record as “approximately 77/23”. Moreover, the “Time to conversion to fructose-6-phosphate after addition to hexokinase” value in the data set on hexokinase (15 mM ATP, 50 mM TRIS, 13 mM MgCl2) was at most 5 s. In addition, the “Conversion of fructose to fructose-6-phosphate in thermal spectrum” value with hexokinase (thermal spectrum acquired over 85 minutes post DNP) is given as “fully converted”.

In the case of `OC[C@H]1O[C@](O)(CO)[C@@H](O)[C@@H]1O` [β-fructofuranose], the “T1 sec (3T)” value in data set [1] was found to be 13.4 ± 2.5 s. For the same compound, in data set [2], the “T1 sec (11.7T)” value is 15.8 ± 0.5 s and the “% pol (corrected)” value turned out to be 11.6 ± 2.5%.

Consider `OC[C@@]1(O)OC[C@@H](O)[C@@H](O)[C@@H]1O` [β-fructopyranose], for which the “T1 sec (3T)” value in data set [1] stood at 14.5 ± 0.3 s. Also, in data set [2], the “T1 sec (11.7T)” value came out at 16.3 ± 0.5 s and the “% pol (corrected)” value is 12.0 ± 2.2%.
